Data on 20 compounds can be found in article PMC4552634, “A New Set of Chemical Starting Points with Plasmodium falciparum Transmission-Blocking Potential for Antimalarial Drug Discovery” (PLoS ONE, 2015).

Data set [1] has as its system P. falciparum asexual stages. The note with it: TCAMS data, cited from earlier work.
The test system of data set [2] is P. falciparum stage V gametocytes. Put plainly: Gametocytocidal ATP bioluminescence assay (single point 5 μM and 1 μM, dose-response). To be noted: for Ratio IC50 HepG2/IC50 P. falciparum: IC50 HepG2 divided by IC50 P. falciparum gametocytes. Type of data set: cell-based, Plasmodium falciparum.
Procedure: Purified stage IV-V gametocytes were obtained as previously described [10]. Single point ATP bioluminescence assay and dose–response of positive hits was determined in accordance with the previously published protocol [10].
A short description of data set [3]: Cytotoxicity in HepG2 cells (intracellular ATP, ATPlite, 48 h). It is filed as cell-based, human. To be noted: human, HepG2 cells.
The subject of a further data set is HepG2 cells. The description is as above. The note with it: IC50 HepG2 divided by IC50 P. falciparum gametocytes. It is filed as cell-based, human.
Where [4] appears, read: asexual stages, read-out: IC50 asexual.
[5] abbreviates: Plasmodium falciparum, P. falciparum gametocytes, average, read-out: IC50 Pf Gametocytes average, IC50 (µM) average.
The mark [6] stands for this setting: sexual stages (gametocytes), dose-response, read-out: IC50 sexual.
The mark [7] stands for this setting: IC50 per ratio column head, unit inferred, read-out: Cytotoxicity in HepG2.
The mark [8] stands for this setting: P. falciparum asexual stages, read-out: IC50 (µM) Pf asexual stages.
Setting [9] is: Plasmodium falciparum, sexual stages (gametocytes), dose-response, read-out: IC50 sexual.
The mark [10] stands for this setting: HepG2, 48 h exposure, intracellular ATP, read-out: IC50 (μM) Cytotoxicity HepG2.

Read-outs that look alike come from different tables or passages of the source.

On to `CN1c2ccc([N+](=O)[O-])cc2C(C)(C)C12C=Cc1cc(Br)cc([N+](=O)[O-])c1O2` (stereo not shown) [TCMDC-124178], for which the IC50 is 0.785 µM in data set [1] (setting [4]); 1.09 µM in data set [2] (setting [5]); 1.09 µM in data set [2] (setting [6]); over 25000 nM in data set [3] (IC50 per ratio column head, unit inferred). The “Ratio IC50 HepG2/IC50 P. falciparum” value (in data set [2]; with HepG2 cells) was over 23 each time.
Turning to `Oc1c(C(Nc2nc3ccccc3s2)c2ccc(OC(F)F)cc2)ccc2cccnc12` (stereo not shown) [TCMDC-124379], the IC50 in data set [1] (setting [4]) is 0.571 µM; in data set [2] (setting [5]), 0.44 µM. Moreover, the “Ratio IC50 HepG2/IC50 P. falciparum” value (in data set [2]; with HepG2 cells) was 55 in each case. Besides, the IC50 at 48 h in data set [3] (setting [7]) was determined as 24.1 µM.
For `Cc1sc2ncnc(Sc3nnc(N)s3)c2c1C` [TCMDC-124542], the IC50 in data set [1] (setting [8]) was 0.4 µM; in data set [1] (setting [4]), 0.399 µM; in data set [2] (setting [5]) it was 0.3 µM. Besides, the “Ratio IC50 HepG2/IC50 P. falciparum” value (in data set [2]; in the data set on HepG2 cells) was over 83 each time. In addition, the IC50 at 48 h in data set [3] (setting [7]) is over 25 µM.
Consider `CCOc1ccc2nc3cc(NC(=O)c4ccco4)ccc3c(N)c2c1` [TCMDC-125004], for which the IC50 is 0.8 µM in data set [1] (setting [8]), 0.802 µM in data set [1] (setting [4]), 0.19 µM in data set [2] (setting [5]) and 0.185 µM in data set [2] (setting [9]). Further, the “Ratio IC50 HepG2/IC50 P. falciparum” value (in data set [2]; in the data set on HepG2 cells) was 56 each time. The values for the IC50 at 48 h in data set [3] (setting [10]) and in data set [3] (setting [7]) were 10 µM and 10.3 µM, respectively.
`Oc1ccc(CCNCCCCCCNCCc2ccc(Cl)c3ccccc23)cc1O` [TCMDC-131271]: the IC50 is 0.716 µM in data set [1] (setting [4]), 0.53 µM in data set [2] (setting [5]) and 0.533 µM in data set [2] (setting [6]). In addition, the “Ratio IC50 HepG2/IC50 P. falciparum” value (in data set [2]; in the data set with HepG2 cells) was 25 throughout. Besides, the IC50 at 48 h in data set [3] (setting [7]) came to 13.5 µM.
As for `CCN(CC)C(=NCCCCCCN=C(NC(=N)c1ccc(Cl)cc1)N(CC)CC)NC(=N)c1ccc(Cl)cc1` [TCMDC-131806], the results for the IC50 in data set [1] (setting [4]) and in data set [2] (setting [5]) were 0.381 µM and 0.84 µM, respectively. The “Ratio IC50 HepG2/IC50 P. falciparum” value (in data set [2]; with HepG2 cells) was 52 throughout. In addition, the IC50 at 48 h in data set [3] (setting [7]) was determined as 43.6 µM.
As to `CCN(CC)C(=NC(=N)NCCCCCCNC(=N)N=C(Nc1ccc(Cl)cc1)N(CC)CC)Nc1ccc(Cl)cc1` [TCMDC-131807], the IC50 in data set [1] (setting [4]) was 0.927 µM; in data set [2] (setting [5]), 0.37 µM; in data set [2] (setting [6]) it was 0.365 µM. The “Ratio IC50 HepG2/IC50 P. falciparum” value (in data set [2]; in the data set on HepG2 cells) was over 68 in each case. For the same compound, in data set [3] (setting [7]), the IC50 at 48 h is over 25 µM.
With `N=C(N=C(NCCCCCCNC(=NC(=N)Nc1ccc(Cl)cc1)N1CCCCC1)N1CCCCC1)Nc1ccc(Cl)cc1` [TCMDC-131811], the figures for the IC50 in data set [1] (setting [4]), in data set [2] (setting [5]) and in data set [2] (setting [6]) were 0.256 µM, 0.38 µM and 0.375 µM, respectively. Moreover, the “Ratio IC50 HepG2/IC50 P. falciparum” value (in data set [2]; in the data set with HepG2 cells) was 61 throughout. Also, the IC50 at 48 h in data set [3] (setting [7]) is 22.9 µM.
As for `N=C(N=C(NCCCCCCNC(=NC(=N)NCc1ccc(Cl)c(Cl)c1)N1CCCCC1)N1CCCCC1)NCc1ccc(Cl)c(Cl)c1` [TCMDC-131816], the IC50 in data set [1] (setting [4]) is 0.567 µM; in data set [2] (setting [5]) it was 0.37 µM; in data set [2] (setting [6]), 0.365 µM. For the same compound, the “Ratio IC50 HepG2/IC50 P. falciparum” value (in data set [2]; with HepG2 cells) was over 68 throughout. For the same compound, the IC50 at 48 h in data set [3] (setting [7]) was over 25 µM.
On to `CCN(CC)C(=NC(=N)NCc1ccc(Cl)cc1)NCCCCCCNC(=NC(=N)NCc1ccc(Cl)cc1)N(CC)CC` [TCMDC-131817], for which the IC50 in data set [1] (setting [4]) was 0.231 µM; in data set [2] (setting [5]), 0.79 µM. The “Ratio IC50 HepG2/IC50 P. falciparum” value (in data set [2]; in the data set on HepG2 cells) was over 32 in each case. Moreover, the IC50 at 48 h in data set [3] (setting [7]) was over 25 µM.
In the case of `CCCCN(CCCC)C(=NC(=N)NCc1ccc(Cl)c(Cl)c1)NCCCCCCNC(=NC(=N)NCc1ccc(Cl)c(Cl)c1)N(CCCC)CCCC` [TCMDC-131821], the IC50 in data set [1] (setting [4]) is 0.399 µM; in data set [2] (setting [5]), 0.62 µM; in data set [2] (setting [6]), 0.615 µM. For the same compound, the “Ratio IC50 HepG2/IC50 P. falciparum” value (in data set [2]; with HepG2 cells) was 20 throughout. In data set [3] (setting [7]), the IC50 at 48 h was found to be 12.4 µM.
Take `COc1cc2c(c(Cl)c1OC)CCN(C(=O)C(F)(F)F)CC2c1ccccc1` (stereo not shown) [TCMDC-132071]: the IC50 was 0.44 µM in data set [1] (setting [8]), 0.441 µM in data set [1] (setting [4]) and 1.95 µM in data set [2] (setting [5]). Further, the “Ratio IC50 HepG2/IC50 P. falciparum” value (in data set [2]; in the data set on HepG2 cells) was over 13 in each case. Moreover, the IC50 at 48 h in data set [3] (setting [7]) is over 25 µM.
For `Cc1cccc2nc(-c3ccc(-c4ccc(CNCc5ccc(CN)cc5)cc4)s3)[nH]c12` [TCMDC-132809], the IC50 is 0.442 µM in data set [1] (setting [4]), 0.86 µM in data set [2] (setting [5]) and 0.855 µM in data set [2] (setting [6]). Further, the “Ratio IC50 HepG2/IC50 P. falciparum” value (in data set [2]; with HepG2 cells) was 28 throughout. For the same compound, the IC50 at 48 h in data set [3] (setting [7]) came to 24 µM.
`NCc1ccc(CNCc2cccc(-c3ccc(-c4nc5cc(C(F)(F)F)ccc5[nH]4)cc3)c2)cc1` [TCMDC-132811]: the IC50 in data set [1] (setting [4]) was 0.261 µM; in data set [2] (setting [5]) it was 0.86 µM; in data set [2] (setting [6]), 0.855 µM. Further, the “Ratio IC50 HepG2/IC50 P. falciparum” value (in data set [2]; in the data set on HepG2 cells) was 28 throughout. In addition, the IC50 at 48 h in data set [3] (setting [7]) came out at 24.3 µM.
Turning to `FC(F)(F)c1ccc2[nH]c(-c3ccc(-c4cccc(CNCCN5CCNCC5)c4)cc3)nc2c1` [TCMDC-132864], the IC50 in data set [1] (setting [8]) is 1.03 µM; in data set [1] (setting [4]), 1.03 µM; in data set [2] (setting [5]) it was 1.08 µM. The “Ratio IC50 HepG2/IC50 P. falciparum” value (in data set [2]; in the data set on HepG2 cells) was 16 throughout. The IC50 at 48 h in data set [3] (setting [10]) was 18 µM; in data set [3] (setting [7]) it was 17.5 µM.
`CC(C)(C)c1ccc(CN2CCC(CNC(=O)c3cc(-c4cccc(Cl)c4)cs3)C2)cc1` (stereo not shown) [TCMDC-134446]: the IC50 was 1.16 µM in data set [1] (setting [8]), 1.16 µM in data set [1] (setting [4]), 0.61 µM in data set [2] (setting [5]) and 0.605 µM in data set [2] (setting [9]). Besides, the “Ratio IC50 HepG2/IC50 P. falciparum” value (in data set [2]; in the data set on HepG2 cells) was 19 each time. The IC50 at 48 h in data set [3] (setting [10]) is 11 µM; in data set [3] (setting [7]), 11.3 µM.
Consider `CCCCCCCCN1CCN(CCCCCCNc2c3ccccc3nc3ccccc23)CC1` [TCMDC-138015], for which the IC50 in data set [1] (setting [4]) was 0.162 µM; in data set [2] (setting [5]), 0.25 µM. Further, the “Ratio IC50 HepG2/IC50 P. falciparum” value in data set [2] is listed as 12. Moreover, in data set [3] (setting [7]), the IC50 at 48 h was 3.1 µM.
Regarding `COc1cc2nc(NCc3cccc(CNC(=O)c4ccc(-c5ccc(C(C)=O)cc5)cc4)c3)nc(N)c2cc1OC.O=C(O)C(F)(F)F` [TCMDC-138177], the IC50 in data set [1] (setting [4]) was 0.118 µM; in data set [2] (setting [5]), 2 µM; in data set [2] (setting [6]), 2 µM. The “Ratio IC50 HepG2/IC50 P. falciparum” value in data set [2] amounted to 5. Besides, the IC50 at 48 h in data set [3] (setting [7]) came out at 9.5 µM.
Regarding `C=C[C@H]1CN(CCCCCCC)CC[C@H]1CCNc1ccnc2ccc(OC)cc12` [TCMDC-139204], the IC50 in data set [1] (setting [4]) is 0.062 µM; in data set [2] (setting [5]), 1.08 µM. Also, the “Ratio IC50 HepG2/IC50 P. falciparum” value in data set [2] was 3. In addition, the IC50 at 48 h in data set [3] (setting [7]) is 3.4 µM.
For `COc1cc(NCCCNCc2cn(Cc3cc(Br)cc(Br)c3)c3ccccc23)nc2ccccc12` [TCMDC-140677], the figures for the IC50 in data set [1] (setting [4]) and in data set [2] (setting [5]) were 0.185 µM and 0.59 µM, respectively. Further, the “Ratio IC50 HepG2/IC50 P. falciparum” value in data set [2] was determined as 10. The IC50 at 48 h in data set [3] (setting [7]) was 6.13 µM.
